According to patent US20080242590A1, “New Method 706” (ASTRAZENECA AB, priority 2007, published 2008):

Tests used:
Format in all cases: biochemical
[1] = system: amyloid β peptide 1-40 (Aβ40); test: Degradation of Aβ40 in human plasma (Example 18); details: 10 μM phosphoramidon
Protocol: Blood from eight individuals (5 females and 3 males) were collected into pre-chilled heparin-plasma tubes at the healthcare centre (AstraZeneca) at two different time points. Plasma was prepared by centrifugation for 20 min at 4° C. at 2500×g within 30 minutes of sampling. Plasma samples were transferred to pre-chilled polypropylene tubes and immediately frozen and stored at −70° C. prior to use. His-Fc-Nep (6 μg/ml) or 5 μg/ml recombinant human Neprilysin (R&D systems) with corresponding vehicles (50 mM Tris-HCl, 150 mM NaCl pH 7.5 or 25 mM Tris-HCl, 0.1 M NaCl pH 8.0) in presence or absence of 10 μM phosphoramidon was incubated with a pool of plasma at 37° C. for 0 and 4 h. A final concentration of 4.7 mM EDTA was added into the tubes before the amount of Aβ40 was analysed using a commercial ELISA kit obtained from Biosource. His-Fc-Nep (6 μg/ml) and commercial human recombinant neprilysin (5 μg/ml) degraded Aβ40 with 33% and 70%, respectively, compared to vehicle after 4 hours incubation at 37° C. The Aβ40 levels were unaffected after addition of 10 μM phosphoramidon (FIG. 4).

[2] = system: amyloid β peptide 1-42 (Aβ42); test: Ex-vivo degradation of Aβ42 in guinea pig plasma; details: 10 μM, combined with 208 μg/ml His-Fc-Nep
Protocol: (§1) Degradation of amyloid β peptide 1-40 (Aβ40) and amyloid β peptide 1-42 (Aβ42) by neprilysin was investigated using heparinized plasma from male Dunkin Hartley guinea pigs, weighing 250-300 g (HBLidkoping ka). Blood was withdrawn from anaesthetized guinea pigs by heart puncture. The blood were collected into prechilled heparin-plasma tubes and centrifuged for 10 min at 4° C. at 3000×g within 20 minutes of sampling. Plasma samples were transferred to pre-chilled polypropylene tubes and immediately frozen on dry ice and stored at −70° C. prior to use. The experiments were performed on a pool of plasma from seven guinea pigs. His-Fc-Nep (6 μg/ml or 208 μg/ml) or 5 μg/ml recombinant human Neprilysin (R&D systems) with corresponding vehicles (50 mM Tris-HCl, 150 mM NaCl pH 7.5 or 25 mM Tris-HCl, 0.1 M NaCl pH 8.0) were incubated with a pool of plasma in presence or absence of 10 μM phosphoramidon (BIOMOL) at 37° C. for 0 and 4 h. A final concentration of 4.7 mM EDTA was added into the tubes before the amount of Aβ40 and Aβ42 was analysed using a commercial ELISA kit obtained from Biosource (Aβ1-40) or Innogenetics (Aβ1-42).

[3] = system: amyloid β peptide 1-40 (Aβ40); test: Ex-vivo degradation of Aβ40 in guinea pig plasma; details: 10 μM phosphoramidon
Protocol: as §1

amyloid β 1-40 peptide = test: Degradation of amyloid β 1-40 peptide by Fc-Neprilysin and Neprilysin in buffer; details: 10 μM Phosphoramidone
Protocol: The assay is measuring the remaining amyloid β 1-40 peptide (Bachem) concentration following its incubation in the presence of Neprilysin (R&D Systems) or Fc-Neprilysin with or without Neprilysin inhibitor. 100 μl of reaction mixture containing amyloid β 1-40 peptide (final concentrations, 300, 30 or 3 nM) and/or Neprilysin (2.4 μg/ml), and/or Fc-Neprilysin construct (2.4 μg/ml), and/or Phosphoramidone (10 μM) was incubated in a round bottom 96-well polypropylene plate at 37° C. for 2.5 hours. Following incubation, 10 μl of reaction mixture was transferred into Thermo-Fast© 96-well PCR plate (Abgene, UK) containing 10 μl of Standard Diluent (Gyros AB). Amyloid β 1-40 concentration was determined using Gyrolab Workstation LIF system. Biotinylated anti-amyloid β antibodies (6E10; final concentration 50 μg/ml; Signet) were used as capturing antibodies and polyclonal anti-human amyloid β antibodies (44-348; Biosource) labeled with Alexa Fluor 647 dye (Molecular probes) were used as detection antibodies. […] Amyloid β 1-40 peptide degradation by Neprilysin was calculated as a percentage of Amyloid β 1-40 peptide left after incubation in the presence of Neprilysin compared to the amyloid β 1-40 peptide concentration in the absence of Neprilysin.

CC(C)C[C@H](NP(=O)(O)O[C@@H]1O[C@@H](C)[C@H](O)[C@@H](O)[C@H]1O)C(=O)N[C@@H](Cc1c[nH]c2ccccc12)C(=O)O [Phosphoramidone, reference compound]
Aβ40 levels after addition of inhibitor to the enzyme incubation [1]: unaffected | Inhibition of the Aβ42 reduction by phosphoramidon [2]: not inhibited | Aβ40 levels after addition of inhibitor to the enzyme incubation [3]: unaffected | Specific Neprilysin activity in the presence of inhibitor (amyloid β 1-40 peptide): almost completely abolished
